Assay results as given in patent US20140011799A1 (Bristol-Myers Squibb Company, priority 2012, published 2014).

Columns and labels:
hepatic lipase (HL) = target: T1, hepatic lipase (HL) (Homo sapiens, UniProt P11150); assay: Hepatic lipase (HL) enzymatic assay, fluorescent substrate A10070 in DMPG vesicles; assay type: biochemical; details: HL partially purified from conditioned media of COS cells; compound preincubated 30 min at 37° C; read-out: HL IC50
T1 construct: made in house; host or cells: COS cells (conditioned medium, partially purified)
T1 sequence (P11150 23-499): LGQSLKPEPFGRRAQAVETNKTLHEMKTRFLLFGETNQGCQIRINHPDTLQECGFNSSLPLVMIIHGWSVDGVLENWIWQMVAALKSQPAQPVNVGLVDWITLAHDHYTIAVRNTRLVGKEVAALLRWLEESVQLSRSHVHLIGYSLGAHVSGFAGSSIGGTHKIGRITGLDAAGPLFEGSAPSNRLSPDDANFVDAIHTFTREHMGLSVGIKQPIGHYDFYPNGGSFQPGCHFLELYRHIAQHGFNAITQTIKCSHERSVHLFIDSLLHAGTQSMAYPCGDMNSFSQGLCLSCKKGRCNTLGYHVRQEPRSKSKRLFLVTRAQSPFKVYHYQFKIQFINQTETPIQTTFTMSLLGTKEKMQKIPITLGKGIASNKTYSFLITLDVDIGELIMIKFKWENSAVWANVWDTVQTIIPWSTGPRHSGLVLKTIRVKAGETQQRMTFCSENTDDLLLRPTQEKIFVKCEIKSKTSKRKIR
Experimental: Endothelial lipase (EL) and hepatic lipase (HL) activities were measured using a fluorescent substrate, A10070, (Invitrogen, CA) doped into an artificial vesicle containing DMPG (Avanti Polar Lipids) as the excipient. Vesicles were prepared by combining 571 μL of 29 mM DMPG in a 1:1 mixture of MeOH and CHCl3 with 2000 μL of 1 mM A10070 in a 1:1 mixture of MeOH and CHCl3. The mixture was dried under nitrogen in multiple vials then resuspended in 20 mL total volume of 50 mM HEPES pH 8.0 buffer containing 50 mM NaCl and 0.2 mM EDTA. The sample was allowed to sit at room temperature for 15 min and then was sonicated 3×4 mins on ice with a Branson Sonicator using duty cycle 1. This preparation provides vesicles with a mole fraction of 0.11 for the FRET substrate.
The enzymatic assay was measured using 384-well white Optiplates. Each well contained 20 μL of assay buffer (50 mM HEPES pH 8.0, 50 mM NaCl and 1 mM CaCl2) and 0.25 μL of a DMSO solution containing a compound of interest. EL or HL (10 μL) was added and allowed to incubate with the compound for 30 min at 37° C. The source of EL was conditioned media obtained from HT-1080 cells that were transformed using RAGE technology (Athersys) to overexpress endogenous EL, and HL was partially purified from conditioned media obtained from COS cells overexpressing HL. The reaction was started by the addition of 10 μL of a 1:10 dilution of vesicles. The final total reaction volume was […]. The reaction rates were measured on a Gemini plate reader with an excitation wavelength of 490 nm and an emission wavelength of 530 nm. Readings were taken over a period of 60 minutes, and the slope between 300 and 900 secs of the readout was used to calculate the rate of the reaction.

Endothelial lipase (EL) = target: T2, Endothelial lipase (EL) (Homo sapiens, UniProt Q9Y5X9); assay: Endothelial lipase (EL) enzymatic assay, fluorescent substrate A10070 in DMPG vesicles; assay type: biochemical; details: EL from conditioned media of HT-1080 cells; compound preincubated 30 min at 37° C; read-out: EL IC50
T2 construct: HT-1080 cells that were transformed using RAGE technology (Athersys) to overexpress endogenous EL; endogenous in cells; conditioned medium used
T2 sequence (Q9Y5X9 21-500): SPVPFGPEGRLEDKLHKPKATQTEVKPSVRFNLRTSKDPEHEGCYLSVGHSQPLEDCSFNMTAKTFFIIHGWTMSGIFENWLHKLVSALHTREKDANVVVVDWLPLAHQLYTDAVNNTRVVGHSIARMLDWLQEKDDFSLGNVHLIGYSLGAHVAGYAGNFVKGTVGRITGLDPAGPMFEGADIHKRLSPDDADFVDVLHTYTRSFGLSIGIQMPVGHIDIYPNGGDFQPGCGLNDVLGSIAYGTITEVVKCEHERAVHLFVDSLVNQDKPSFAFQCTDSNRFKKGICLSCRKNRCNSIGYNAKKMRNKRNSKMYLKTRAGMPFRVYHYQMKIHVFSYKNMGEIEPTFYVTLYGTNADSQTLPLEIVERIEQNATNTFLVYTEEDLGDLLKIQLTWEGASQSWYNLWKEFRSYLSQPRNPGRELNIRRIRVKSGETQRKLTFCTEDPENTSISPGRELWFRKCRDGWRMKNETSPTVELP
Outline: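 Substrate A10070 sits in sonicated DMPG vesicles at 0.11 mole fraction. Lipase and compound preincubated 30 min, 37° C, in HEPES pH 8.0 buffer with CaCl2.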

| Structure (SMILES) | IC50 (hepatic lipase (HL)) [µM] | IC50 (Endothelial lipase (EL)) [µM] |
| --- | --- | --- |
| C[C@]1(Cc2nnc(C(c3nc4ccc(-c5ccc(C(=O)N6CCOCC6)cc5)cc4s3)S(C)(=O)=O)o2)OC(=O)NC1=O (stereo partly drawn) [Example 109, (5R)-5-methyl-5-((5-((methylsulfonyl)(6-(4-(4-morpholinylcarbonyl)phenyl)-1,3-benzothiazol-2-yl)methyl)-1,3,4-oxadiazol-2-yl)methyl)-1,3-oxazolidine-2,4-dione] | 0.764 | < 0.01 |
| COCc1ccc(-c2ccc3nc(C(c4nnc(CNS(N)(=O)=O)o4)S(=O)(=O)Cc4ccccc4F)sc3c2)cc1 (stereo not shown) [Example 240, N-({5-[(2-fluorophenyl)methanesulfonyl ({6-[4-(methoxymethyl)phenyl]-1,3-benzothiazol-2-yl})methyl]-1,3,4-oxadiazol-2-yl}methyl) aminosulfonamide] | 0.003 | 0.002 |
| COC1CN(C(=O)c2cccc(-c3ccc4nc(C(c5nnc(CNS(N)(=O)=O)o5)S(C)(=O)=O)sc4c3)c2)C1 (stereo not shown) [Example 267, N-({5-[methanesulfonyl({6-[3-(3-methoxyazetidine-1-carbonyl)phenyl]-1,3-benzothiazol-2-yl})methyl]-1,3,4-oxadiazol-2-yl}methyl)aminosulfonamide] | 0.041 | 0.014 |
| NS(=O)(=O)NCc1nnc(C(c2nc3ccc(-c4ccc(C(F)(F)F)cc4)cc3s2)S(=O)(=O)Cc2ccccc2)o1 (stereo not shown) [Example 128, N-((5-((benzylsulfonyl)(6-(4-(trifluoromethyl)phenyl)-1,3-benzothiazol-2-yl)methyl)-1,3,4-oxadiazol-2-yl)methyl) sulfamide] | < 0.01 | < 0.01 |
| NS(=O)(=O)NCc1nnc(C(c2nc3ccc(-c4ccc(Cl)c(Cl)c4)cc3s2)S(=O)(=O)Cc2ccccc2)o1 (stereo not shown) [Example 148, N-((5-((benzylsulfonyl)(6-(3,4-dichlorophenyl)-1,3-benzothiazol-2-yl)methyl)-1,3,4-oxadiazol-2-yl)methyl)sulfamide] | < 0.01 | < 0.01 |
| CN1CCN(C(=O)c2cccc(-c3ccc4nc(C(c5nnc(CNS(N)(=O)=O)o5)S(=O)(=O)Cc5ccccc5)sc4c3)c2)CC1 (stereo not shown) [Example 198, N-((5-((benzylsulfonyl)(6-(3-((4-methyl-1-piperazinyl)carbonyl)phenyl)-1,3-benzothiazol-2-yl)methyl)-1,3,4-oxadiazol-2-yl)methyl)sulfamide] | 9.18 | < 0.01 |
| Cn1cc(-c2cc3sc(C(c4nnc(CNC(=O)OC(C)(C)C)o4)S(=O)(=O)Cc4ccccc4)nc3cc2F)cn1 (stereo not shown) [Example 166, tert butyl ((5-((benzylsulfonyl)(5-fluoro-6-(1-methyl-1H-pyrazol-4-yl)-1,3-benzothiazol-2-yl)methyl)-1,3,4-oxadiazol-2-yl)methyl)carbamate] | 0.032 | 0.023 |
| CS(=O)(=O)C(c1nnc(CC2SC(=O)NC2=O)o1)c1nc2ccc(C#N)cc2s1 (stereo not shown) [Example 190, 2-((5-((2,4-Dioxo-1,3-thiazolidin-5-yl)methyl)-1,3,4-oxadiazol-2-yl)(methylsulfonyl)methyl)-1,3-benzothiazole-6-carbonitrile] | 0.418 | < 0.01 |
| CC(C)(C)OC(=O)NS(=O)(=O)NCc1nnc(C(c2nc3ccc(-c4cc(F)cc(Cl)c4)cc3s2)S(=O)(=O)Cc2ccccc2)o1 (stereo not shown) [Example 142, tert-butyl (((5-((benzylsulfonyl)(6-(3-chloro-5-fluorophenyl)-1,3-benzothiazol-2-yl)methyl)-1,3,4-oxadiazol-2-yl)methyl)sulfamoyl)carbamate] | < 0.01 | < 0.01 |
| CS(=O)(=O)C(c1nnc(CC2SC(=O)NC2=O)o1)c1nc2ccc(-c3ccc(=O)n(Cc4ccccc4)c3)cc2s1 (stereo not shown) [Example 101, 5-((5-((6-(1-benzyl-6-oxo-1,6-dihydro-3-pyridinyl)-1,3-benzothiazol-2-yl)(methylsulfonyl)methyl)-1,3,4-oxadiazol-2-yl)methyl)-1,3-thiazolidine-2,4-dione] | 0.16 | < 0.01 |
| NS(=O)(=O)NCc1nnc(C(c2nc3ccc(-c4ccc(F)nc4)cc3s2)S(=O)(=O)Cc2ccc(OC(F)(F)F)cc2)o1 (stereo not shown) [Example 239, N-[(5-{[6-(6-fluoropyridin-3-yl)-1,3-benzothiazol-2-yl] [4-(trifluoromethoxy)phenyl]methanesulfonylmethyl}-1,3,4-oxadiazol-2-yl)methyl] aminosulfonamide] | 0.009 | 0.004 |
| CC(C)(C)[C@H](O)C(=O)NCc1nnc(C(c2nc3ccc(-c4ccccc4)cc3s2)S(C)(=O)=O)o1 (stereo partly drawn) [Example 155, (2S)-2-hydroxy-3,3-dimethyl-N-((5-((methylsulfonyl)(6-phenyl-1,3-benzothiazol-2-yl)methyl)-1,3,4-oxadiazol-2-yl)methyl)butanamide] | 0.026 | 0.137 |
| COCc1ccc(-c2ccc3nc(C(c4nnc(CNS(N)(=O)=O)o4)S(=O)(=O)Cc4ccc(C(F)(F)F)cc4)sc3c2)cc1 (stereo not shown) [Example 236, N-{[5-({6-[4-(methoxymethyl)phenyl]-1,3-benzothiazol-2-yl}[4-(trifluoromethyl)phenyl]meth-anesulfonylmethyl)-1,3,4-oxadiazol-2-yl]methyl} aminosulfonamide] | 0.001 | 0.001 |
| CC1(Cc2nnc(C(c3nc4ccc(-c5cccc(C(=O)N6CC[C@@H](F)C6)c5)cc4s3)S(C)(=O)=O)o2)NC(=O)NC1=O (stereo partly drawn) [Example 232, 5-({5-[(6-{3-[(3R)-3-fluoropyrrolidine-1-carbonyl]phenyl}-1,3-benzothiazol-2-yl) (methanesulfonyl)methyl]-1,3,4-oxadiazol-2-yl}methyl)-5-methyl-imidazolidine-2,4-dione] | 0.054 | 0.001 |
| CS(=O)(=O)C(c1nnc(CC2SC(=O)NC2=O)o1)c1nc2cc(F)c(-c3ccccc3)cc2s1 (stereo not shown) [Example 160, 5-((5-((5-fluoro-6-phenyl-1,3-benzothiazol-2-yl)(methylsulfonyl)methyl)-1,3,4-oxadiazol-2-yl)methyl)-1,3-thiazolidine-2,4-dione] | 0.013 | < 0.01 |
| CC(C)(C)OC(=O)Cc1nnc(C(c2nc3ccc(-c4ccc(C(=O)N5CCOCC5)cc4)cc3s2)S(=O)(=O)Cc2ccccc2)o1 (stereo not shown) [Example 108, tert-butyl (5-((benzylsulfonyl)(6-(4-(4-morpholinylcarbonyl)phenyl)-1,3-benzothiazol-2-yl)methyl)-1,3,4-oxadiazol-2-yl)acetate] | 0.014 | 0.024 |
| CC1(Cc2nnc(C(c3nc4ccc(-c5cccc(C(=O)N6CCOCC6)c5)cc4s3)S(C)(=O)=O)o2)NC(=O)NC1=O (stereo not shown) [Example 210, 5-({5-[methanesulfonyl({6-[3-(morpholine-4-carbonyl)phenyl]-1,3-benzothiazol-2-yl})methyl]-1,3,4-oxadiazol-2-yl}methyl)-5-methyl-imidazolidine-2,4-dione] | 0.365 | 0.009 |
